According to patent publication US7582679B2, “Compositions containing solid ibuprofen concentrates and methods of making solid ibuprofen concentrates” (Pharmaceutics International Incorporated, priority 2006, dated 2009):

How the values were obtained:
[1] = Angle of repose (flowability of powder); type: physicochemical
Method: The dried granules were lubricated with 0.25% w/w magnesium stearate and compressed using a Piccola 10 station rotary tablet press. The lubricated granules had angle of repose 26.56° compared with ibuprofen powder (supplied by BASF) having an angle of repose 48.01°. The resultant compressed tablets had hardness 6.1 kp and thickness 4.80 mm.

[2] = Comparative dissolution of hard gelatin capsules, USP apparatus type II, purified water; type: physicochemical; conditions: size 1 hard gelatin capsule, 200 mg ibuprofen, paddle 50 rpm, 900 mL purified water
Method: Ibuprofen powder (supplied by BASF) was similarly filled manually into size 1 hard gelatin capsules to yield 200 mg ibuprofen per capsule.
Capsules were tested using a USP dissolution apparatus type II with a paddle speed of 50 rpm and 900 mL of purified water as a dissolution medium.

Structure (SMILES): CC(C)Cc1ccc(C(C)C(=O)O)cc1 (stereo not shown) [ibuprofen powder, ibuprofen]
- angle of repose [1]: 48.01 °
- % dissolution ([2]; 10 min): 2.2%
- % dissolution ([2]; 20 min): 5.9%
- % dissolution ([2]; 30 min): 9.2%
